Results taken from patent publication US20030113312A1, “Skin barrier function and cohesion through enhanced stratum corneum acidification” (The Regents of the University of California, priority 2001, published 2003).
Several values for one entry are separate records, joined by “and”; a condition that tells them apart may be missing. Identical values can stand only once.

Assays:
[1] = test system: hairless mice skin (stratum corneum); assay: Skin surface pH after topical treatment or buffer exposure; type: in vivo, mouse; conditions: for pH of the stratum corneum: BPB alone, three days
Protocol: Animals: Male hairless mice (Skh1/Hr, Charles River Laboratories, Wilmington, Mass.), 8-12 weeks old, were fed Purina mouse diet and water ad libitum. […] Functional experiments were performed on animals aged 6-10 weeks.
The mice were anesthetized with chloral hydrate (Morton Grove Pharmaceuticals, Morton Grove, Ill., USA). After 3 hours immersion at 37° C., the mice were removed, and the remaining buffer was gently blotted off. After 15 minutes, barrier function was determined by measurement of transepidermal water loss (TEWL) with an electrolytic water analyzer (MEECO®, Warrington, Pa.). Surface pH was measured with a flat, glass surface electrode from Mettler-Toledo (Giessen, Germany), attached to a pH meter (Skin pH Meter PH 900, Courage & Khazaka, Cologne, Germany). Individually tested sites were covered with Hilltop Chambers (HtC, nominal volume 200 mL), which were reapplied following each indvidual measurement.

[2] = test system: hairless mice skin (stratum corneum); assay: Barrier function by transepidermal water loss (TEWL); type: in vivo, mouse
Protocol: Animals: Male hairless mice (Skh1/Hr, Charles River Laboratories, Wilmington, Mass.), 8-12 weeks old, were fed Purina mouse diet and water ad libitum. […] Each litter was genotyped separately. Functional experiments were performed on animals aged 6-10 weeks.
The mice were anesthetized with chloral hydrate (Morton Grove Pharmaceuticals, Morton Grove, Ill., USA). After 3 hours immersion at 37° C., the mice were removed, and the remaining buffer was gently blotted off. After 15 minutes, barrier function was determined by measurement of transepidermal water loss (TEWL) with an electrolytic water analyzer (MEECO®, Warrington, Pa.). Surface pH was measured with a flat, glass surface electrode from Mettler-Toledo (Giessen, Germany), attached to a pH meter (Skin pH Meter PH 900, Courage & Khazaka, Cologne, Germany). Individually tested sites were covered with Hilltop Chambers (HtC, nominal volume […]), which were reapplied following each indvidual measurement.

[3] = test system: hairless mice skin (stratum corneum); assay: Stratum corneum integrity: TEWL after sequential tape stripping; type: in vivo, mouse
Protocol: The mice were anesthetized with chloral hydrate (Morton Grove Pharmaceuticals, Morton Grove, Ill., USA). […] After 15 minutes, barrier function was determined by measurement of transepidermal water loss (TEWL) with an electrolytic water analyzer (MEECO®, Warrington, Pa.). […] Individually tested sites were covered with Hilltop Chambers (HtC, nominal volume 200 mL), which were reapplied following each indvidual measurement.
The stratum corneum was removed by several strippings with adhesive tape (Tesa, Beiersdorf, Germany) inducing an increase in TEWL rates above baseline (from 0.2 to approximately 7-9 g/m^2/h). Two sites were prepared on each animal, and TEWL and surface pH were measured at 0, 2, 5 and 24 hrs following the stripping and the applications of inhibitors.

[4] = test system: hairless mice skin (stratum corneum); assay: Stratum corneum cohesion: protein removed per D-Squame stripping; type: in vivo, mouse; conditions: after three days of inhibitor treatment alone; vehicle about 5
Protocol: Before stripping the stratum corneum, the skin surface was cleaned with a single ethanol wipe. D-Squame tapes then were placed sequentially to the test areas for about 3 sec each, removed with forceps, and stored in glass scintillation vials at 5° C.
The protein content per stripping was determined with the Bio-Rad protein assay kit. […] Each tape was incubated with 1 M NaOH for 1 hour at 37° C. in an incubator shaker at 80 rpm, and neutralized thereafter with 1 mL of 1 M HCl in the scintillation vials. Subsequently, 0.2 mL of this solution was incubated in 0.6 ml distilled water plus 0.2 mL of the Bio-Rad protein dye for 5 minutes in boroscillate tubes. […] An empty D-Squame tape, as well as distilled water incubated with Bio-Rad dye, served as negative controls. The amount of calculated protein was then normalized to skin surface area (μg/cm^2).

[5] = test system: desmosomes in the lower stratum corneum; assay: Desmosome density by microscopy and desmoglein-1 immunostaining; type: in vivo, mouse; conditions: for density of desmosomes in lower stratum corneum and at SC-SG interface: inhibitor-treated murine skin vs controls
Source text: Ultrastructural methods: Freshly obtained biopsies from mouse skin were fixed directly in modified Karnovsky's fixative, postfixed with reduced osmium tetroxide (OS04) and then imbedded in an Epon-epoxy mixture. For visualization of lipid-enriched, lamellar bilayer structures, some samples were post fixed in ruthenium tetroxide (RuO4). Sections were cut on a Reichert Ultracut E microtome, counterstained with uranyl acetate and lead citrate, and viewed in a Zeiss 10 CR electron microscope, operated at 60 kV.
Immunofluorescence Staining: Hairless mouse skin was excised with a 6 mm punch biopsy, and the subcutaneous fat was removed. Tissue sections were incubated for 1 hour in blocking buffer (1% bovine serum albumin, 0.1% cold water fish gelatin in phosphate buffered saline (PBS)), and were then incubated for 1 hour further at room temperature with 1:500 dilution of polyclonal rabbit anti-mouse desmoglein 1 antibody (gift of Dr. John Stanley, University of Pennsylvania) diluted in blocking buffer. The tissue was then washed with blocking buffer and incubated one hour at room temperature with floroscien-labeled, isothiocyanate-conjugated, goat anti-rabbit IgG antibody (DAKO, Carpinteria, Calif., USA), diluted in blocking buffer. Either preincubation of DSG 1 antibody with DSG 1-recombinant protein (gift of Dr. Masayuki Amagai, Keio University, Tokyo, Japan), or omission of the DSG 1 primary antibody eliminated specific staining. Tissue sections then were washed with PBS and coverslipped before visualization under confocal microscope (Leica TCS SP, Heidlberg, Germany) using FITC at an excitation wavelength of 494 nm and an emisson wavelength of 518 nm.
To further investigate the changes in stratum corneum cohesion that are brought about by application of secretory phospholipase A2 inhibitors, BPB and MJ33 treated samples of murine skin and the corresponding untreated controls, were assessed by immunohistochemical staining and confocal microscopy. […]

Murine skin = conditions: 4 mg/mL topical in propylene glycol:ethanol; cited from earlier work

SMILES	pH of the stratum corneum ([1]; comparator of the linoleic acid co-application)	pH of the stratum corneum ([1]; comparator of the palmitic acid co-application)	pH of the stratum corneum ([1]; comparator of the stearic acid co-application)	pH of the skin ([1]; hairless mice, 4 mg/mL topical twice daily, after one day, starting value about pH 5.6) [pH]	final average pH of treated sites ([1]; hairless mice, 4 mg/mL topical twice daily, day 3, vehicle close to pH 5.4) [pH]	TEWL rate ([2]; 4 mg/mL topical twice daily, day 2, vehicle closer to 2.5) [g/m^2/h]	TEWL rate ([2]; 4 mg/mL topical twice daily, day three, vehicle near 3) [g/m^2/h]	TEWL rate after fifth tape strip ([3]; after three days of inhibitor treatment alone, vehicle close to 25)	TEWL rate after second tape strip ([3]; after three days of inhibitor treatment alone, vehicle closer to 5) [g/m^2/h]	protein removed, first D-Squame strip [4]	density of desmosomes in lower stratum corneum and at SC-SG interface [5]	density of DSG1 positive clusters ([5]; laser confocal microscopy, treated vs vehicle stratum corneum)	toxicity of the dose employed to Murine skin (Murine skin)	stratum corneum surface pH ([1]; MJ33 4 mg/mL topical, vs vehicle 5.60+/-0.05, p=0.0023)	fold increase in TEWL rates ([2]; by day three, vs vehicle)	TEWL rate ([2]; repeated applications, day three, vs vehicle 2.97+/-0.16, p<0.001)	TEWL rate after three consecutive tape strips ([3]; day 3 of inhibitor treatment alone, vehicle closer to 40) [g/m^2/h]
O=C(CBr)c1ccc(Br)cc1 [BPB, bromphenacyl bromide]	6.28+/−0.1	5.92+/−0.05	6.17+/−0.08	~6.0	~6.4	~6	~11	~90 g/m^2/h and 80-100 g/m^2/h	~20	about 20 μg/cm^2	dramatic reduction	decline dramatically	non-toxic				
CCCCCCCCCCCCCCCCOCC(COCC(F)(F)F)OP(=O)(O)OC (stereo not shown) [MJ33, One-hexadecyl-3-triflouroethylglycero-sn-2-phosphomethanol]											dramatic reduction		non-toxic	5.87+/−0.06	2-3 fold	5.19+/−0.81	~75
